Data set [1] is described as follows: Cytotoxicity against mouse C2C12 cells assessed as lethal dose. The settings on record: read-out: LD50 (the source's name). The data set is classed as toxicity, cell-based.
The next data set deals with Cruzipain (Trypanosoma cruzi, UniProt P25779). Put plainly: Inhibition of Trypanosoma cruzi cruzain using Z-FR-AMC as substrate preincubated for 10 mins followed by substrate addition by fluorimetric analysis.
Another data set concerns Trypanosoma cruzi. The experiment in a line: Antitrypanosomal activity against amastigotes form of Trypanosoma cruzi CA-I/72 infected in mouse C2C12 cells assessed as parasite infection level by DAPI staining based microscopic analysis. It is filed as functional, organism-based. To be noted: CA-I/72, C2C12.

CC50, IC50 and EC50 data for 26 compounds are collected here from ChEMBL document CHEMBL5154751, “Intramolecular Interactions Enhance the Potency of Gallinamide A Analogues against Trypanosoma cruzi” (J Med Chem, 2022).

Cruzipain, sequence (P25779 whole entry): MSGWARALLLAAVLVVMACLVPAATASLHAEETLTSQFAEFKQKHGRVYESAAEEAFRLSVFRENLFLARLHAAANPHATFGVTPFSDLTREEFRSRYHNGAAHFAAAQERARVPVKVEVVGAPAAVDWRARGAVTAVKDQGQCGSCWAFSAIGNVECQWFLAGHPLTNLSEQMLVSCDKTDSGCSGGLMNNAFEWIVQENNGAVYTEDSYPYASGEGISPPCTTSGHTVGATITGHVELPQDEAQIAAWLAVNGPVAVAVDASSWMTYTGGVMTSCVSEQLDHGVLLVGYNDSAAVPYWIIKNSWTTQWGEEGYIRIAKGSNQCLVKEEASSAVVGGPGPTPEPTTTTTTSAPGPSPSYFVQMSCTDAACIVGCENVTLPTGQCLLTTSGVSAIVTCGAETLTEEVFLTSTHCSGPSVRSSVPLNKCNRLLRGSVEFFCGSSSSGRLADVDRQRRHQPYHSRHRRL

As to `COC1=CC(=O)N(C(=O)/C=C/[C@H](C)NC(=O)[C@H](CC(C)C)NC(=O)[C@H](CC(C)C)NC(=O)[C@H](C(C)C)N(C)C)[C@H]1Cc1c[nH]c2ccccc12`, the CC50 in data set [1] is above 600 nM. Consider `COC1=CC(=O)N(C(=O)/C=C/[C@H](C)NC(=O)[C@H](CC(C)C)NC(=O)[C@H](CC(C)C)NC(=O)C2CCN(C)CC2)[C@H]1Cc1c[nH]c2ccccc12`, for which the CC50 in data set [1] is above 600 nM.

For `COC1=CC(=O)N(C(=O)/C=C/[C@H](C)NC(=O)[C@H](CC(C)C)NC(=O)[C@H](CC2CCCCC2)NC(=O)C2CCN(C)CC2)[C@H]1Cc1c[nH]c2ccccc12`, the CC50 in data set [1] is above 600 nM. `COC1=CC(=O)N(C(=O)/C=C/[C@H](C)NC(=O)[C@H](CC2CCCCC2)NC(=O)[C@H](CC(C)C)NC(=O)C2CCN(C)CC2)[C@H]1Cc1c[nH]c2ccccc12`: the CC50 in data set [1] was above 600 nM. Same read-out and setting: the value for `COC1=CC(=O)N(C(=O)/C=C/[C@H](C)NC(=O)[C@H](CC2CCCCC2)NC(=O)[C@H](CC2CCCCC2)NC(=O)C2CCN(C)CC2)[C@H]1Cc1c[nH]c2ccccc12` was above 600 nM; that for `COC1=CC(=O)N(C(=O)/C=C/[C@H](C)NC(=O)[C@H](CC(C)C)NC(=O)[C@H](Cc2ccccc2)NC(=O)[C@H](C(C)C)N(C)C)[C@H]1Cc1c[nH]c2ccccc12` was above 600 nM.

Regarding `COC1=CC(=O)N(C(=O)/C=C/[C@H](C)NC(=O)[C@H](CCc2ccccc2)NC(=O)[C@H](CC(C)C)NC(=O)[C@H](C(C)C)N(C)C)[C@H]1Cc1c[nH]c2ccccc12`, the CC50 in data set [1] is above 600 nM. With `COC1=CC(=O)N(C(=O)/C=C/[C@H](C)NC(=O)[C@H](CC(C)C)NC(=O)[C@H](CC2CCCCC2)NC(=O)[C@H](C(C)C)N(C)C)[C@H]1Cc1c[nH]c2ccccc12`, the CC50 in data set [1] was above 600 nM. For `COC1=CC(=O)N(C(=O)/C=C/[C@H](CCc2ccccc2)NC(=O)[C@H](CC(C)C)NC(=O)[C@H](CC(C)C)NC(=O)[C@H](C(C)C)N(C)C)[C@H]1Cc1c[nH]c2ccccc12`, in data set [1], the CC50 is above 600 nM. As for `COC1=CC(=O)N(C(=O)/C=C/[C@H](C)NC(=O)[C@H](CC2CCCCC2)NC(=O)[C@H](CC(C)C)NC(=O)[C@H](C(C)C)N(C)C)[C@H]1Cc1c[nH]c2ccccc12`, the CC50 in data set [1] is above 600 nM. With `COC1=CC(=O)N(C(=O)/C=C/[C@H](C)NC(=O)[C@H](CC2CCCCC2)NC(=O)[C@H](CC2CCCCC2)NC(=O)[C@H](C(C)C)N(C)C)[C@H]1Cc1c[nH]c2ccccc12`, the CC50 in data set [1] is above 600 nM. On the same count and under the same terms, for `COC1=CC(=O)N(C(=O)/C=C/[C@@H](NC(=O)[C@H](CC(C)C)NC(=O)[C@H](CC2CCCCC2)NC(=O)[C@H](C(C)C)N(C)C)C2CCCCC2)[C@H]1Cc1c[nH]c2ccccc12` the value was above 600 nM. As for `COC1=CC(=O)N(C(=O)/C=C/[C@H](C)NC(=O)[C@H](CCc2ccccc2)NC(=O)[C@H](CC2CCCCC2)NC(=O)[C@H](C(C)C)N(C)C)[C@H]1Cc1c[nH]c2ccccc12`, the CC50 in data set [1] was above 600 nM.

`COC1=CC(=O)N(C(=O)/C=C/[C@@H](CCc2ccccc2)NC(=O)[C@H](CC(C)C)NC(=O)[C@H](CC(C)C)NC(=O)[C@H](C(C)C)N(C)C)C1Cc1ccc(-c2ccccc2)cc1` (some centres undefined): the IC50 against Cruzipain amounted to 0.12 nM. Also, the EC50 in the data set with Trypanosoma cruzi was determined as 13 nM. In addition, the CC50 in data set [1] was above 600 nM.

Take `COC1=CC(=O)N(C(=O)/C=C/[C@H](CCc2ccccc2)NC(=O)[C@H](CC(C)C)NC(=O)[C@H](CC(C)C)NC(=O)C2CCN(C)CC2)C1Cc1ccc(-c2ccc(C#N)cc2)cc1` (some centres undefined): the midpoint of inhibition against Cruzipain, the IC50, lay at 0.13 nM. For the same compound, in the data set on Trypanosoma cruzi, the EC50 was 423 nM. Also, the CC50 in data set [1] is above 600 nM. As to `COC1=CC(=O)N(C(=O)/C=C/[C@@H](CCc2ccccc2)NC(=O)[C@H](CC(C)C)NC(=O)[C@H](CC(C)C)NC(=O)[C@H](C(C)C)N(C)C)C1Cc1ccc(-c2ccc(OC)cc2)cc1` (some centres undefined), the IC50 at Cruzipain came to 0.28 nM. The EC50 with Trypanosoma cruzi was 19 nM. Moreover, in data set [1], the CC50 is above 600 nM. Consider `COC1=CC(=O)N(C(=O)/C=C/[C@H](CCc2ccccc2)NC(=O)[C@H](CC(C)C)NC(=O)[C@H](CC(C)C)NC(=O)C2CCN(C)CC2)C1Cc1ccc(-c2ccc(C(F)(F)F)cc2)cc1` (some centres undefined), for which the IC50 on Cruzipain was determined as 0.79 nM. Also, the EC50 in the data set on Trypanosoma cruzi is 420 nM. The CC50 in data set [1] is above 600 nM.

As to `COC1=CC(=O)N(C(=O)/C=C/[C@H](CCc2ccccc2)NC(=O)[C@H](CC(C)C)NC(=O)[C@H](CC(C)C)NC(=O)C2CCN(C)CC2)C1Cc1ccc(-c2ccccc2)cc1` (some centres undefined), at Cruzipain, 0.4 nM corresponded to half-maximal inhibition (IC50). In addition, in the data set with Trypanosoma cruzi, the EC50 is 222 nM. For the same compound, the CC50 in data set [1] is above 600 nM. Compound `COC1=CC(=O)N(C(=O)/C=C/[C@@H](CCc2ccccc2)NC(=O)[C@H](CC(C)C)NC(=O)[C@H](CC(C)C)NC(=O)[C@H](C(C)C)N(C)C)C1Cc1ccc(-c2ccc(C#N)cc2)cc1` (some centres undefined) returned an IC50 against Cruzipain of 0.11 nM. The 50% effective concentration (EC50) in the data set on Trypanosoma cruzi stood at 19 nM. Further, the CC50 in data set [1] is above 600 nM.

As to `COC1=CC(=O)N(C(=O)/C=C/[C@@H](CCc2ccccc2)NC(=O)[C@H](CC(C)C)NC(=O)[C@H](CC(C)C)NC(=O)[C@H](C(C)C)N(C)C)C1Cc1ccc(-c2ccc(C(F)(F)F)cc2)cc1` (some centres undefined), the half-maximal inhibitory concentration (IC50) at Cruzipain was determined as 0.68 nM. Besides, the EC50 in the data set on Trypanosoma cruzi worked out at 78 nM. In addition, the CC50 in data set [1] is above 600 nM. For the compound `CCCC[C@H]1O[C@@H]1/C=C/C=O`, the IC50 against Cruzipain is 29.7 nM. Further, in data set [1], the CC50 is above 600 nM. The compound `COC1=CC(=O)N(C(=O)/C=C/[C@H](CCc2ccccc2)NC(=O)[C@H](CC(C)C)NC(=O)[C@H](CC(C)C)NC(=O)C2CCN(C)CC2)C1Cc1ccc(-c2ccc(OC)cc2)cc1` (some centres undefined) came in with an IC50 at Cruzipain of 0.26 nM. Further, the EC50 with Trypanosoma cruzi came to 261 nM. In data set [1], the CC50 was above 600 nM.

In turn, `COC1=CC(=O)N(C(=O)/C=C/[C@H](CCc2ccccc2)NC(=O)[C@H](CC(C)C)NC(=O)[C@H](CC(C)C)NC(=O)C2CCN(C)CC2)C1Cc1ccc(-c2ccc3ccccc3c2)cc1` (some centres undefined) returned an IC50 on Cruzipain of 1.56 nM. Also, the EC50 in the data set with Trypanosoma cruzi stood at 521 nM. Also, the CC50 in data set [1] is above 600 nM.

Take `COC1=CC(=O)N(C(=O)/C=C/[C@@H](CCc2ccccc2)NC(=O)[C@H](CC(C)C)NC(=O)[C@H](CC(C)C)NC(=O)[C@H](C(C)C)N(C)C)C1Cc1ccc(-c2ccc3ccccc3c2)cc1` (some centres undefined): the IC50 at Cruzipain was found to be 0.69 nM. Also, the EC50 with Trypanosoma cruzi was 59 nM. The CC50 in data set [1] is above 600 nM.

Take `O=C(Cn1ccnc1[N+](=O)[O-])NCc1ccccc1` [BENZNIDAZOLE]: the EC50 with Trypanosoma cruzi came to 1910 nM. For the same compound, in data set [1], the CC50 is above 600 nM. The compound `CC[C@H](C)[C@@H](C(=O)O[C@@H](CC(C)C)C(=O)N[C@@H](CC(C)C)C(=O)N[C@@H](C)/C=C/C(=O)N1C(=O)C=C(OC)[C@@H]1C)N(C)C` [GALLINAMIDE A] displayed an IC50 against Cruzipain of 1.3 nM. Besides, the CC50 in data set [1] was above 600 nM.
